Results taken from PMC10975748.

How the values were obtained:
[1] = test system: anti-TTX monoclonal antibody; assay type: binding
[2] = analogues purified from pufferfish liver; patch clamp
[3] = test system: isolated mouse phrenic-nerve-hemi-diaphragm muscle preparations; assay: Nerve-evoked isometric contraction, reversal of CiTX neuromuscular block; settings: 100 µM, in continuous presence of GYM-A, PnTX-A, PnTX-G or PteTX-1
[4] = molecular target: T1, muscle-type α12βεδ nAChRs (Mus musculus, UniProt P02716+P04756+P20782); assay: Nerve-evoked isometric contraction, block by cyclic imine toxins
T1 construct: skeletal muscle expressing α12βεδ nAChRs; from tissue; host or cells: isolated mouse phrenic-nerve-hemi-diaphragm muscle

[5] = test system: mice injected with venoms; assay: Recovery from neuroparalysis in mice injected with neurotoxic snake venoms; assay type: in vivo
Text: (§1) Abstract: Envenomation by snakes is a major neglected human disease even though it affects millions of people with sequelae and kills hundreds of thousands of them. A large toll is taken by snakes that inject neurotoxic venoms capable of inducing complete degeneration of motor axon terminals with rapid development of a peripheral neuroparalysis with severe respiratory deficit. The major venom component causing this degeneration are presynaptic acting PLA2s that hydrolyse phospholipids in lysophospholipids and fatty acids that induce large entry of Ca^2+ into the neuronal cytosol. This leads to the activation of endogenous hydrolases that cause a complete degeneration of the motor axon terminals, which is followed by a regeneration program, only partially known in molecular terms. We recently identified two types of membrane receptors involved in the regeneration of the paralysed neuromuscular junction (NMJ). Here we report that this paralysis activates a proregenerative molecular axis, consisting of the CXCR4 receptor expressed at the stump of degenerated motor axon terminals and by the release of its ligand CXCL12α by surrounding Schwann cells. […]

[6] = Text: as §1
CB1 receptors = molecular target: T2, CB1 receptors (Homo sapiens, UniProt P21554); assay: Two-electrode voltage-clamp, CB1-GIRK1/2-RGS4 system in Xenopus laevis oocytes; assay type: cell-based; settings: GIRK1/2 currents induced by WIN55,212-2, Xenopus oocytes
T2 construct: expressed in transfected cells; host or cells: Xenopus laevis oocytes
Text: (§2) Abstract: Cannabinoid receptors (CB1 and CB2) are promising targets for diverse diseases, such as pain, inflammation, and neurological diseases. However, only a few ligands of CB receptors have reached clinical application so far. In the present study, we focused on the venom of Stephanoconus snails and found an endocannabinoid-like molecule, oleoyl serotonin (OS), active on CB1 and CB2. To determine the effects of OS, CB1 and CB2 receptors were functionally expressed in Xenopus laevis oocytes, together with the G protein-coupled inwardly rectifier potassium channels (GIRK1/2), and a regulator of G protein signalling (RGS4). Ion currents were measured with a two-electrode voltage-clamp system. […] To the best of our knowledge, OS is the first venom-derived ligand modulating CB receptors. […]. To investigate the critical domains of the CB receptor for OS activity, we constructed a chimeric CB1/2 receptor by replacing the transmembrane domain V (TMV)-intracellular loop 3 (ICL3)-TMVI domain (TMV-ICL3-TMVI) of the CB2 receptor with that of the CB1 receptor. […] This study highlights the potential of animal venom components as a promising library for the discovery of novel CB receptor ligands.

CB2 receptors = molecular target: T3, CB2 receptors (Homo sapiens, UniProt P34972); assay: Two-electrode voltage-clamp, CB2 with GIRK1/2 and RGS4 in Xenopus laevis oocytes; assay type: cell-based; settings: GIRK1/2, RGS4
T3 construct: expressed in transfected cells; host or cells: Xenopus laevis oocytes
Text: as §2

[7] = test system: serotonin, histamine, opioid and nicotinic receptors, TRP channels or voltage-gated sodium, potassium or calcium channels; assay: Selectivity of OS on other receptors and channels; assay type: cell-based
mice = assay: In vivo evaluation of OS on brain-related neurological functions
human mitoTRPV1 = human mitoTRPV1 (Homo sapiens, UniProt Q8NER1); assay type: cell-based
Sequence of human mitoTRPV1 (Q8NER1 434-839): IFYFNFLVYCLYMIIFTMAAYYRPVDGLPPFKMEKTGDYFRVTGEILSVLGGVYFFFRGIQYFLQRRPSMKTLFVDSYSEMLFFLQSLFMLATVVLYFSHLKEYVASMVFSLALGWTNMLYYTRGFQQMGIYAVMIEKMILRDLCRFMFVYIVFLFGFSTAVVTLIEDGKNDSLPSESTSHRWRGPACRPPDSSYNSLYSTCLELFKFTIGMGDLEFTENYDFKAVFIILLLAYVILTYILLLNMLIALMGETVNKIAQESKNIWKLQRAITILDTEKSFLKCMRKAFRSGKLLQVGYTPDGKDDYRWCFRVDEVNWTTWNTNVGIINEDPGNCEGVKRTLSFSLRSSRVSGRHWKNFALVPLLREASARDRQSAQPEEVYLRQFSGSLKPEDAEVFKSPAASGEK

T1 sequence (P09690 24-501): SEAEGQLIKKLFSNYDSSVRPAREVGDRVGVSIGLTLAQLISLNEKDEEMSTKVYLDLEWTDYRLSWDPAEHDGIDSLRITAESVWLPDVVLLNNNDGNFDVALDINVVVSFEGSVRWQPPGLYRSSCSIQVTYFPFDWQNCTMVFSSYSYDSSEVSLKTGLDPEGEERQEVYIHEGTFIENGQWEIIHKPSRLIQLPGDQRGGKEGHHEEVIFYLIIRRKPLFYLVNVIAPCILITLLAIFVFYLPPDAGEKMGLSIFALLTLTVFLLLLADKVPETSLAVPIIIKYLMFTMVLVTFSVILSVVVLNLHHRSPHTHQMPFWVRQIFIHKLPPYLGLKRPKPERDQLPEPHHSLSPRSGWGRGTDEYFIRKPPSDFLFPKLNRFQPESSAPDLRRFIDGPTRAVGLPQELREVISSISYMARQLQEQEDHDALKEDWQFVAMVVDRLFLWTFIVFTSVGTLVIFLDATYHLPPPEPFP
T1 sequence (P02716 25-520): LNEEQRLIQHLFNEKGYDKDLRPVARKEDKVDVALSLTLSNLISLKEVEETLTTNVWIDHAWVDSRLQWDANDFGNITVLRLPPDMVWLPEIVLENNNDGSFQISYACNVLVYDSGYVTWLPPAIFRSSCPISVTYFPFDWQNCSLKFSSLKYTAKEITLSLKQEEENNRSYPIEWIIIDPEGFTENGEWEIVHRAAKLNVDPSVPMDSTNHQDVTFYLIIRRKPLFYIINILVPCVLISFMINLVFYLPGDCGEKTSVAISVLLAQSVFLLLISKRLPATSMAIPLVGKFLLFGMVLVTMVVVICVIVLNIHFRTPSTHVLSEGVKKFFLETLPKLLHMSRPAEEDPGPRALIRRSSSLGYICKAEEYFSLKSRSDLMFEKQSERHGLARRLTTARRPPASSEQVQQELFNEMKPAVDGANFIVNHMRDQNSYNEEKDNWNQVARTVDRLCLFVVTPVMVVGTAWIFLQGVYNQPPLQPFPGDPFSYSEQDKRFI
T1 sequence (P04756 21-457): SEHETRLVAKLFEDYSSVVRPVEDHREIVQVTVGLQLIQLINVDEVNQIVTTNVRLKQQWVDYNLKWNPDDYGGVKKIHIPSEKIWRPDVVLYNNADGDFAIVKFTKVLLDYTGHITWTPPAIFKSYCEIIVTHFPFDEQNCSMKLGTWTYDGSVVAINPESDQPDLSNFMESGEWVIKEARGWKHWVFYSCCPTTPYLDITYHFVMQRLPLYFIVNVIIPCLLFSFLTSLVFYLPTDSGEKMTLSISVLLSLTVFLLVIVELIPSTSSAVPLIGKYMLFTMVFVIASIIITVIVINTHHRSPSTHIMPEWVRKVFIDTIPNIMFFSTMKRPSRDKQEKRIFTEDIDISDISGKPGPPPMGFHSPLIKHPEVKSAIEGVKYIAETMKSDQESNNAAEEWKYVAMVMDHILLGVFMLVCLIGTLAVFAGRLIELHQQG
T1 sequence (P20782 21-493): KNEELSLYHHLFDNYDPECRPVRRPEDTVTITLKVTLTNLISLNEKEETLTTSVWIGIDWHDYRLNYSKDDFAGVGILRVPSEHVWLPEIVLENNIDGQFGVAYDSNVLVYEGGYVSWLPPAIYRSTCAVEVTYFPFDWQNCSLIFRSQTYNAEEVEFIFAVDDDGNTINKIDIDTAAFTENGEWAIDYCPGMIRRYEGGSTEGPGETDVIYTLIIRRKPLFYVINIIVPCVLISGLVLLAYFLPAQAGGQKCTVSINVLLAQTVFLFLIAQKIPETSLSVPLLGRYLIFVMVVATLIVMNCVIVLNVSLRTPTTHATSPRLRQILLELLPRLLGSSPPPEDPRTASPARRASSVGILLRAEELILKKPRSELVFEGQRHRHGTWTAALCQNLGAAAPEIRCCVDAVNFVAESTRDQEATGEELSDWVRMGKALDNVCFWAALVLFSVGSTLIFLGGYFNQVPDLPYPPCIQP
T2 sequence (P21554 whole entry): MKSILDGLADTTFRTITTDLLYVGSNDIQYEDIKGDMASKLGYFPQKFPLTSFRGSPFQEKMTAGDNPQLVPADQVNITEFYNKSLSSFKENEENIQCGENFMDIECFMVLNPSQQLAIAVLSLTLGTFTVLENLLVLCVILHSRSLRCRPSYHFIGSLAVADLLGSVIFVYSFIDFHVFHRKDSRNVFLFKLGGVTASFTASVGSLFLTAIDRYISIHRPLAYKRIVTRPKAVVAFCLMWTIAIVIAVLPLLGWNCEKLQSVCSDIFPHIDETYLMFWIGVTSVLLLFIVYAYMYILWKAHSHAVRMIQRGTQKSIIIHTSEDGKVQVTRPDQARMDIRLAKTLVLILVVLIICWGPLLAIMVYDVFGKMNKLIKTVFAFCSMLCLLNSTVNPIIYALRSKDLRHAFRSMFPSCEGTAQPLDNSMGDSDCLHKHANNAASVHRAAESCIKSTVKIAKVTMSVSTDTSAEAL
T3 sequence (P34972 whole entry): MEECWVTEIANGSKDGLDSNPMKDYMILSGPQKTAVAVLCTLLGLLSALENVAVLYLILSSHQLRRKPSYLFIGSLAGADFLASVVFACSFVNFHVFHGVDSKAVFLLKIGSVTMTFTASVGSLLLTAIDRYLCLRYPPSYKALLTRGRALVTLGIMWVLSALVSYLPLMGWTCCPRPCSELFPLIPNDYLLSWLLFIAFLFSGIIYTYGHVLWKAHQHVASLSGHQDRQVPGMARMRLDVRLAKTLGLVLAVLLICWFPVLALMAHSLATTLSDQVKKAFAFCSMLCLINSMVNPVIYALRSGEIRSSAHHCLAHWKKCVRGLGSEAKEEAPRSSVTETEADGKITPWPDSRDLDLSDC

With 5,6,11-trideoxyTTX the “cross-reactivity (cross-reactivity factors, CRFs)” value [1] was “lower” and the “toxicity (toxicity equivalency factors, TEFs)” value [2] was “lower”.

With 5,11-dideoxyTTX the “cross-reactivity (cross-reactivity factors, CRFs)” value [1] was “lower”.

In the case of `Nc1ccncc1N` [3,4-DAP, 3,4-Diaminopyridine], the “reversal of neuromuscular block caused by the CiTX” value [3] is reported as “completely reverses”.

For `CC1=C[C@@H](C2=C(C)[C@@H]3/C=C(\C)[C@@H](O)CC[C@@H]4C[C@@H](C)[C@@H](O4)/C(C)=C/CCC4=NCCC[C@@]43CC2)OC1=O` [GYM-A], the “type of inhibition of α12βεδ nAChRs” value [4] was “competitive and reversible inhibitors”.

In the case of `CCCn1nc(C(=O)N2CCCCC2)c2c1CCC(NCCc1ccncc1)C2` (centres unmarked) [NUCC-390], the “time of recovery from neuroparalysis” value ([5]; determined by imaging, electrophysiological methods and lung ventilation) is reported as “shortens the time of recovery from neuroparalysis”, the “efficacy in mice injected with venoms” value ([5]; venoms of three Bungarus species, Oxyuranus scutellatus, Micrurus nigrocinctus, Vipera ammodytes and V. aspis) is reported as “very effective” and the “blood brain barrier crossing” value [6] is reported as “does not cross the blood brain barrier”. The toxicity [6] was “non-toxic”.

For `CCCCCCCC/C=C\CCCCCCCC(=O)NCCc1c[nH]c2ccc(O)cc12` [OS, oleoyl serotonin], the “mode of action on CB1 receptors” value (CB1 receptors) was “competitive antagonist”, the “mode of action on CB2 receptors” value (CB2 receptors) was “non-competitive blocker” and the “activity on other receptors and channels” value [7] was “does not show significant activity”. The “effect on brain-related neurological functions” value (mice) was “anxiolytic effect”.

In the case of `C=C1CCCC2=NC[C@H](C)[C@@H](C)C[C@@]23CCC(C(=O)O)=C[C@@H]3[C@@H]2O[C@]3(C[C@H]4CCC[C@@]5(CC[C@@]6(O[C@@H](CC[C@@]6(C)O)C1)O5)O4)C[C@@H](C)[C@@H](O)[C@H]2O3` [PnTX-A], the “type of inhibition of α12βεδ nAChRs” value [4] is reported as “competitive and reversible inhibitors”.

In the case of `C=CC1=C[C@@H]2[C@@H]3O[C@]4(C[C@H]5CCC[C@@]6(CC[C@@]7(O[C@@H](CC[C@@]7(C)O)CC(=C)CCCC7=NC[C@H](C)[C@@H](C)C[C@@]72CC1)O6)O5)C[C@@H](C)[C@@H](O)[C@H]3O4` [PnTX-G], the “type of inhibition of α12βεδ nAChRs” value [4] is reported as “competitive and reversible inhibitors”.

With `C=C(C)[C@]12C[C@@H](C)[C@@]34O[C@](Cc5ccccc5)(O[C@@H]1[C@@H]3C=C(COC(=O)Cc1ccc(O)c(OC)c1)C[C@]1(O)C(=O)C(C)=C[C@@H]41)O2` [RTX, resiniferatoxin] the “mitochondrial Ca2+ efflux” value (human mitoTRPV1) was “enhanced a Ca^2+ efflux from the mitochondria” and the mitochondrial temperature (human mitoTRPV1) was “significant reduction in the mitochondrial temperature”.
